Assay results: patent US8507251B2, “Medium and method for culturing Mycobacterium avium subspecies paratuberculosis” (priority 2009, dated 2013)
Where “and” joins values, the source holds several entries; their conditions need not be identical. Equal values may be shown once. Read-outs that look alike come from different tables or passages of the source.

How the values were obtained:
M. avium ATCC 25291 = experiment: radiometric 14CO2 BACTEC 460 growth culture, M. avium 25291; format: cell-based, M. avium subspecies avium; conditions: for effect on growth (in words): at the doses tested
MAP ATCC 19698 = experiment: radiometric 14CO2 BACTEC 460 growth culture, MAP 19698; format: cell-based, Mycobacterium avium subspecies paratuberculosis
M. avium 101 = experiment: radiometric 14CO2 BACTEC 460 growth culture, M. avium 101; format: cell-based, M. avium subspecies avium
[1] = tested on: avirulent M. tb strain ATCC 25177; format: cell-based, M. tuberculosis
MAP 303 = experiment: radiometric 14CO2 BACTEC 460 growth culture, MAP 303; format: cell-based, Mycobacterium avium subspecies paratuberculosis
[2] = tested on: Bacillus Callmette Guerin (BCG) M. bovis Karlson & Lessel (ATCC 19015); format: cell-based; conditions: for effect on growth (in words): at the doses tested
[3] = tested on: MAP strain Dominic (ATCC 43545); experiment: radiometric 14CO2 BACTEC 460 growth culture, MAP Dominic; format: cell-based, Mycobacterium avium subspecies paratuberculosis
MAP strain UCF-4 = experiment: radiometric 14CO2 BACTEC 460 growth culture, MAP UCF-4; format: cell-based, Mycobacterium avium subspecies paratuberculosis
M. avium = format: cell-based, M. avium subspecies avium; conditions: 4 μg/ml; value is a decrease
[4] = 1 μg/ml, first of the two values (two experiments)
[5] = 4 μg/ml, first of the two values (two experiments)
[6] = 16 μg/ml, first of the two values (two experiments)
[7] = 64 μg/ml, first of the two values (two experiments)
[8] = 1 μg/ml, second of the two values (two experiments)
[9] = 4 μg/ml, second of the two values (two experiments)
[10] = 16 μg/ml, second of the two values (two experiments)
[11] = 64 μg/ml, second of the two values (two experiments)

NC(=O)c1cccnc1 [Nicotinamide, nicotinamide]
percent change from control cGI (% ΔcGI / % −ΔcGI) (M. avium ATCC 25291; 0.1 μg/ml): 23% | percent change from control cGI (% ΔcGI / % −ΔcGI) (M. avium ATCC 25291; 0.4 μg/ml): 105% | percent change from control cGI (% ΔcGI / % −ΔcGI) (M. avium ATCC 25291; 1.6 μg/ml): 157% | percent change from control cGI (% ΔcGI / % −ΔcGI) (M. avium ATCC 25291; 6.4 μg/ml): 144% | effect on growth (in words) (M. avium ATCC 25291): caused enhancement of growth | percent change from control cGI (% ΔcGI / % −ΔcGI) (MAP ATCC 19698; 0.1 μg/ml): −6% | percent change from control cGI (% ΔcGI / % −ΔcGI) (MAP ATCC 19698; 0.4 μg/ml): −2% | percent change from control cGI (% ΔcGI / % −ΔcGI) (MAP ATCC 19698; 1.6 μg/ml): −8% | percent change from control cGI (% ΔcGI / % −ΔcGI) (MAP ATCC 19698; 6.4 μg/ml): −7% | effect on growth (in words) (MAP ATCC 19698; at the doses tested): no effect | percent change from control cGI (% ΔcGI / % −ΔcGI) (M. avium 101; 0.1 μg/ml): 6% | percent change from control cGI (% ΔcGI / % −ΔcGI) (M. avium 101; 0.4 μg/ml): −21% | percent change from control cGI (% ΔcGI / % −ΔcGI) (M. avium 101; 1.6 μg/ml): 7% | percent change from control cGI (% ΔcGI / % −ΔcGI) (M. avium 101; 6.4 μg/ml): 58% | effect on growth (in words) (M. avium 101; at the doses tested): caused enhancement of growth | effect on growth (in words) [1]: no effect | percent change from control cGI (% ΔcGI / % −ΔcGI) (MAP 303; 0.1 μg/ml): −5% | percent change from control cGI (% ΔcGI / % −ΔcGI) (MAP 303; 0.4 μg/ml): −28% | percent change from control cGI (% ΔcGI / % −ΔcGI) (MAP 303; 1.6 μg/ml): 11% | percent change from control cGI (% ΔcGI / % −ΔcGI) (MAP 303; 6.4 μg/ml): 3% | effect on growth (in words) (MAP 303; at the doses tested): no effect | effect on growth (in words) [2]: no effect | percent change from control cGI (% ΔcGI / % −ΔcGI) ([3]; 0.1 μg/ml, second value printed in Table 4): 32% | percent change from control cGI (% ΔcGI / % −ΔcGI) ([3]; 0.4 μg/ml, second value printed in Table 4): 98% | percent change from control cGI (% ΔcGI / % −ΔcGI) [3, 4]: 110% | percent change from control cGI (% ΔcGI / % −ΔcGI) ([3]; 1.6 μg/ml, second value printed in Table 4): 156% | percent change from control cGI (% ΔcGI / % −ΔcGI) [3, 5]: 115% | percent change from control cGI (% ΔcGI / % −ΔcGI) ([3]; 6.4 μg/ml, second value printed in Table 4): 156% | percent change from control cGI (% ΔcGI / % −ΔcGI) [3, 6]: 125% | percent change from control cGI (% ΔcGI / % −ΔcGI) [3, 7]: 106% | effect on growth (in words) ([3]; at the doses tested): enhanced | percent increase from control cGI (%+ΔcGI) ([3]; for 1, 4, 16 and 64 μg/ml, first experiment): ≥ 100% | percent change from control cGI (% ΔcGI / % −ΔcGI) (MAP strain UCF-4; 0.1 μg/ml): 20% | percent change from control cGI (% ΔcGI / % −ΔcGI) (MAP strain UCF-4; 0.4 μg/ml): 52% | percent change from control cGI (% ΔcGI / % −ΔcGI) (MAP strain UCF-4; 1.6 μg/ml): 73% | percent change from control cGI (% ΔcGI / % −ΔcGI) (MAP strain UCF-4; 6.4 μg/ml): 79% | effect on growth (in words) (MAP strain UCF-4; at the doses tested): enhanced

O=C(O)c1cccnc1 [Nicotinic acid, nicotinic acid]
percent change from control cGI (% ΔcGI / % −ΔcGI) (M. avium ATCC 25291; 1 μg/ml): 98% | percent change from control cGI (% ΔcGI / % −ΔcGI) (M. avium ATCC 25291; 4 μg/ml): 170% | percent change from control cGI (% ΔcGI / % −ΔcGI) (M. avium ATCC 25291; 16 μg/ml): 167% | percent change from control cGI (% ΔcGI / % −ΔcGI) (M. avium ATCC 25291; 64 μg/ml): 175% | effect on growth (in words) (M. avium ATCC 25291): enhanced growth | percent change from control cGI (% ΔcGI / % −ΔcGI) (MAP ATCC 19698; 1 μg/ml): −17% | percent change from control cGI (% ΔcGI / % −ΔcGI) (MAP ATCC 19698; 4 μg/ml): −4% | percent change from control cGI (% ΔcGI / % −ΔcGI) (MAP ATCC 19698; 16 μg/ml): 12% | percent change from control cGI (% ΔcGI / % −ΔcGI) (MAP ATCC 19698; 64 μg/ml): 30% | effect on growth (in words) (MAP ATCC 19698; at the doses tested): far less nicotinic acid induced enhancement | percent change from control cGI (% ΔcGI / % −ΔcGI) (M. avium 101; 1 μg/ml): 41% | percent change from control cGI (% ΔcGI / % −ΔcGI) (M. avium 101; 4 μg/ml): 47% | percent change from control cGI (% ΔcGI / % −ΔcGI) (M. avium 101; 16 μg/ml): 40% | percent change from control cGI (% ΔcGI / % −ΔcGI) (M. avium 101; 64 μg/ml): 56% | effect on growth (in words) (M. avium 101; at the doses tested): enhanced growth | percent change from control cGI (% ΔcGI / % −ΔcGI) (MAP 303; 1 μg/ml): −4% | percent change from control cGI (% ΔcGI / % −ΔcGI) (MAP 303; 4 μg/ml): 2% | percent change from control cGI (% ΔcGI / % −ΔcGI) (MAP 303; 16 μg/ml): −4% | percent change from control cGI (% ΔcGI / % −ΔcGI) (MAP 303; 64 μg/ml): 22% | effect on growth (in words) (MAP 303; at the doses tested): far less nicotinic acid induced enhancement | percent change from control cGI (% ΔcGI / % −ΔcGI) [3, 4]: 46% | percent change from control cGI (% ΔcGI / % −ΔcGI) [3, 8]: 71% | percent change from control cGI (% ΔcGI / % −ΔcGI) [3, 5]: 133% | percent change from control cGI (% ΔcGI / % −ΔcGI) [3, 9]: 181% | percent change from control cGI (% ΔcGI / % −ΔcGI) [3, 6]: 195% | percent change from control cGI (% ΔcGI / % −ΔcGI) [3, 10]: 198% | percent change from control cGI (% ΔcGI / % −ΔcGI) [3, 7]: 197% | percent change from control cGI (% ΔcGI / % −ΔcGI) [3, 11]: 225% | percent change from control cGI (% ΔcGI / % −ΔcGI) (MAP strain UCF-4; 1 μg/ml): 48% | percent change from control cGI (% ΔcGI / % −ΔcGI) (MAP strain UCF-4; 4 μg/ml): 63% | percent change from control cGI (% ΔcGI / % −ΔcGI) (MAP strain UCF-4; 16 μg/ml): 101% | percent change from control cGI (% ΔcGI / % −ΔcGI) (MAP strain UCF-4; 64 μg/ml): 92% | percent change from control cGI (% ΔcGI / % −ΔcGI) (MAP strain UCF-4; 64 μg/ml, listed as nicotinic acid): 92%

Nc1ccc(C(=O)O)c(O)c1 [PAS, para-amino salicylic acid, reference compound]
percent decrease from control cGI (%−ΔcGI) (M. avium): ≥ 94% | percent decrease from control cGI (%−ΔcGI) (MAP ATCC 19698; 64 μg/ml, value is a decrease): 80% | percent decrease from control cGI (%−ΔcGI) (MAP 303; 64 μg/ml, value is a decrease): 80% | percent decrease from control cGI (%−ΔcGI) ([2]; 4 μg/ml): ≥ 94%

O=C(O)c1ccccc1O [salicylic acid, reference compound]
percent change from control cGI (% ΔcGI / % −ΔcGI) (M. avium ATCC 25291; 64 μg/ml): 104% | percent change from control cGI (% ΔcGI / % −ΔcGI) (MAP 303; 64 μg/ml): 66% | percent change from control cGI (% ΔcGI / % −ΔcGI) ([2]; 64 μg/ml): 95%

NC(=O)c1ccc[n+]([C@H]2O[C@H](COP(=O)([O-])OP(=O)(O)OC[C@H]3O[C@@H](n4cnc5c(N)ncnc54)[C@H](O)[C@@H]3O)[C@@H](O)[C@H]2O)c1 [α-NAD, α-nicotinamide adenine dinucleotide]
percent change from control cGI (% ΔcGI / % −ΔcGI) (M. avium ATCC 25291; 1 μg/ml): −2% | percent change from control cGI (% ΔcGI / % −ΔcGI) (M. avium ATCC 25291; 4 μg/ml): 160% | percent change from control cGI (% ΔcGI / % −ΔcGI) (M. avium ATCC 25291; 16 μg/ml): 131% | percent change from control cGI (% ΔcGI / % −ΔcGI) (M. avium ATCC 25291; 64 μg/ml): 147% | effect on growth (in words) (MAP ATCC 19698): little or no effect | percent change from control cGI (% ΔcGI / % −ΔcGI) (MAP ATCC 19698; 1 μg/ml): −16% | percent change from control cGI (% ΔcGI / % −ΔcGI) (MAP ATCC 19698; 4 μg/ml): −6% | percent change from control cGI (% ΔcGI / % −ΔcGI) (MAP ATCC 19698; 16 μg/ml): −17% | percent change from control cGI (% ΔcGI / % −ΔcGI) (MAP ATCC 19698; 64 μg/ml): 13% | effect on growth (in words) (M. avium 101): little or no effect | percent change from control cGI (% ΔcGI / % −ΔcGI) (M. avium 101; 1 μg/ml): 39% | percent change from control cGI (% ΔcGI / % −ΔcGI) (M. avium 101; 4 μg/ml): −15% | percent change from control cGI (% ΔcGI / % −ΔcGI) (M. avium 101; 16 μg/ml): −21% | percent change from control cGI (% ΔcGI / % −ΔcGI) (M. avium 101; 64 μg/ml): −14% | effect on growth (in words) [1]: little or no effect | percent change from control cGI (% ΔcGI / % −ΔcGI) [1]: 2% and −6% and −1% and 0% | effect on growth (in words) (MAP 303): little or no effect | percent change from control cGI (% ΔcGI / % −ΔcGI) (MAP 303; 1 μg/ml): 8% | percent change from control cGI (% ΔcGI / % −ΔcGI) (MAP 303; 4 μg/ml): 9% | percent change from control cGI (% ΔcGI / % −ΔcGI) (MAP 303; 16 μg/ml): −8% | percent change from control cGI (% ΔcGI / % −ΔcGI) (MAP 303; 64 μg/ml): −18% | effect on growth (in words) [2]: little or no effect | percent change from control cGI (% ΔcGI / % −ΔcGI) [3, 4]: 25% | percent change from control cGI (% ΔcGI / % −ΔcGI) [3, 8]: −16% | percent change from control cGI (% ΔcGI / % −ΔcGI) [3, 5]: 79% | percent change from control cGI (% ΔcGI / % −ΔcGI) [3, 9]: 35% | percent change from control cGI (% ΔcGI / % −ΔcGI) [3, 6]: 104% | percent change from control cGI (% ΔcGI / % −ΔcGI) [3, 10]: 78% | percent change from control cGI (% ΔcGI / % −ΔcGI) [3, 7]: 135% | percent change from control cGI (% ΔcGI / % −ΔcGI) [3, 11]: 115% | percent change from control cGI (% ΔcGI / % −ΔcGI) (MAP strain UCF-4; 1 μg/ml): 18% | percent change from control cGI (% ΔcGI / % −ΔcGI) (MAP strain UCF-4; 4 μg/ml): 35% | percent change from control cGI (% ΔcGI / % −ΔcGI) (MAP strain UCF-4; 16 μg/ml): 65% | percent change from control cGI (% ΔcGI / % −ΔcGI) (MAP strain UCF-4; 64 μg/ml): 81%
